Test results as given in US20050221328A1, “Inhibitors of inflammatory gene activity and cholesterol biosynthesis” (Wyeth, priority 2002, published 2005).

Tests used:
[1] = system: prostaglandin D synthase, IPS; experiment: Liver expression of prostaglandin D synthase and IPS; assay type: in vivo; settings: mouse liver; 30 mg/kg/day genistein, 5 mg/kg/day raloxifene
Description: Referring to FIGS. 6a and 6b, experiments were constructed and performed to establish that EE induction of gene expression is not required for ERα inhibition of IL-1β gene inductions. […] The expression level in the vehicle+PBS treated mice was defined as 1.0. […] However, there was no correlation between the ability of these compounds to inhibit IL-1β gene induction (EE>genistein>raloxifene) and the ability of these compounds to stimulate prostaglandin D synthase expression (EE>>raloxifene>genistein).

[2] = system: Fnk, JAB, LIX, bcl-3 and SHP; experiment: Liver expression of Fnk, JAB, LIX, bcl-3 and SHP by realtime PCR after estrogen receptor ligand pretreatment and IL-1β; settings: 100 ug/kg/day EE, 5 mg/kg/day raloxifene
Protocol: Referring to FIG. 3a, to distinguish these two mechanisms, the IL-1β fold induction of Fnk, JAB, LIX, and bcl-3 and the IL-1β fold repression of SHP was quantified in animals pretreated with vehicle (black bars) or 100 ug/kg/day EE (grey bars). Liver RNA levels of each gene (mean +/−SEM) were determined by realtime PCR of RNA from each individual animal.
Referring to FIGS. 4a, 4b, 4c, 4d and 4e, experiments were conducted to determine whether EE blocks IL-1β induction of gene expression by an estrogen receptor (ER) dependent mechanism. Estrogens can regulate gene expression by many mechanisms including ER independent pathways such as antioxidant mechanisms. […] Liver expression levels of Fnk, JAB, LIX, bcl-3 and SHP (mean +/−SEM) were determined by realtime PCR.
Referring to FIGS. 5a, 5b, 5c, 5d, and 5e, experiments were conducted to determine whether ERα is required for EE regulation of gene expression in the liver. To determine whether ERα or ERβ mediated the EE effects on IL-1β gene expression in the liver, C57BL/6 wild type mice, C57BL/6 ERαKO mice, or 129 ERβKO mice were pretreated with vehicle (black bars) or […] EE (gray bars) for 5 days followed by a 1 hour treatment with IL-1β. Liver expression levels of Fnk, JAB, LIX, bcl-3, and SHP (mean +/−SEM) were quantified by realtime PCR, with expression in animals receiving vehicle+PBS defined as 1.0.

For O=c1c(-c2ccc(O)cc2)coc2cc(O)cc(O)c12 [Genistein, genistein], the “induction of IPS” value [1] was “no induction”, the “effect on regulation of liver Fnk, JAB, LIX, bcl-3 and SHP expression vs IL-1β alone” value ([2]; mice, 1 or 10 mg/kg/day E2, 30 mg/kg/day genistein, 10 mg/kg/day ICI182780, plus IL-1β) was “magnitude was not as great” and the “inhibition of IL-1β induction of Fnk, JAB, LIX and bcl-3” value ([2]; mouse liver, 30 mg/kg/day genistein) was “inhibited”.
